Assay results from US10414983B2, “Curved liquid crystal display” (SAMSUNG DISPLAY CO., LTD., priority 2017, dated 2019).

assay: Adsorption force of the first compound; assay type: physicochemical; design: unit not given here; conditions: adsorption to pixel electrode; unit not given; larger absolute value = stronger adsorption
Excerpt: Next, a physical characteristic of the first compound according to an example embodiment obtained as above-described and a comparative example are compared.
As described in Table 2, solubility and adsorption force of the first compound according to Examples 1 to 7 and the Comparative Example are described.
Referring to Table 2, in the case of the first compound according to an example embodiment, it is confirmed that the solubility is the same level as or higher than the comparative example. Also, it may be confirmed that an absolute value of the adsorption force of the first compound is the same level as or higher than the comparative example. Accordingly, the first compound may be easily absorbed to the pixel electrode, thereby it may be confirmed that the solubility is excellent when being injected to the liquid crystal material and the first compound is easily injected along with the liquid crystal material.

SMILES | Adsorption force
C=C(C)C(=O)OCCCc1cc(-c2ccccc2CC)cc(CCCOC(=O)C(=C)C)c1OCCCCCc1ccc(OCCCCCO)cc1 [Comparative Example, reference compound] | −0.49
C=C(CCN(CCO)CCO)Oc1ccc(C(=O)c2ccc(OC(=O)C(=C)C)cc2)cc1 [Example 1] | −1.27
C=C(C)C(=O)OCCCCCOc1ccc(C(=O)c2ccc(OCCCCCCOC(=O)CCN(CCO)CCO)cc2)cc1 [Example 2] | −1.34
C=C(C)C(=O)OCCCCCOc1c(F)cc(-c2ccc(OCCCCCCOC(=O)CCN(CCC)CCO)cc2)cc1F [Example 3] | −0.99
C=CC(=O)OCCOc1c(F)cc(-c2ccc(OCCOC(=O)CCOC3CCOCC3)cc2)cc1F [Example 4] | −0.40
C=CC(=O)OCCOc1c(F)cc(-c2ccc(OCCOC(=O)CCOCc3ccoc3)cc2)cc1F [Example 5] | −0.45
C=CC(=O)OCCOc1c(F)cc(-c2ccc(OCCOC(=O)CCOCc3cccnn3)cc2)cc1F [Example 6] | −0.51
C=CC(=O)OCCOc1c(F)cc(-c2ccc(OCCOC(=O)CCOCc3ccon3)cc2)cc1F [Example 7] | −0.53
